These results are taken from US5136076A, “Process for the preparation of amino acid-derived enatiomeric compounds” (Societe Civile Bioprojet, priority 1987, dated 1992).

This experiment concerns healthy volunteers. In words: Clinical pharmacology: diuresis and natriuresis. Type of experiment: in vivo, human. Particulars: 30 mg oral, between 2 and 8 hours after administration, p<0.05. Here is the method:
With healthy volunteers (9 male subjects) enkephalinase and natriuretic auricular factor (ANF) plasma levels as well as diuresis and natruresis are measured after oral administration of either a placebo, or (S) acetorphan.

As to `CC(=O)SCC(Cc1ccccc1)C(=O)NCC(=O)OCc1ccccc1` (single isomer, unassigned) [Compound (2)], the increase of diuresis amounted to 42% and the increase of natriuresis was 46%.
